Experiment: Phenomenex Kinetex XB-C18, 100 × 2.1 mm, 1.7 µm, 35 °C, 0.3 mL/min, estimated dead time 0.73 min; A: water + 0.1% formic acid; B: acetonitrile + 0.1% formic acid; gradient (min/%B) 0/5 1/5 2/10 9/33 15/46 16/70 21/90 22/90
Settings: stereoisomer not certain

| LC retention time [min] | Compound |
| --- | --- |
| 9.85 | CC(C)=CCCC(C)(OC1OC(COC2OC(CO)C(O)C(OC3OCC(O)C(O)C3O)C2O)C(O)C(O)C1O)C1CCC2(C)C1C(O)CC1C3(C)CCC(OC4OC(CO)C(O)C(O)C4OC4OC(CO)C(O)C(O)C4OC4OCC(O)C(O)C4O)C(C)(C)C3CCC12C (configuration not stated) |
| 6.86 | O=c1c(OC2OC(CO)C(O)C(O)C2O)c(-c2ccc(O)cc2)oc2cc(O)cc(O)c12 (configuration not stated) |
| 6.28 | O=c1cc(-c2ccc(O)c(O)c2)oc2cc(OC3OC(CO)C(O)C(O)C3O)cc(O)c12 (configuration not stated) |
| 10.9 | CC(C)=CCCC(C)(O)C1CCC2(C)C1C(O)CC1C3(C)CCC(O)C(C)(C)C3C(OC3OC(CO)C(O)C(O)C3OC3OC(C)C(O)C(O)C3O)CC12C (configuration not stated) |
| 11.1 | CC(C)=CCCC(C)(OC1OC(COC2OC(CO)C(O)C(O)C2O)C(O)C(O)C1O)C1CCC2(C)C1C(O)CC1C3(C)CCC(OC4OC(CO)C(O)C(O)C4OC4OC(COC(=O)CC(=O)O)C(O)C(O)C4O)C(C)(C)C3CCC12C (configuration not stated) |
| 18.2 | CCCC=C1OC(=O)C2=C1CCC1C3C=C4C(=O)OC(=CCCC)C4(CC3)C21 (configuration not stated) |
| 10.9 | CC(C)=CCCC(C)(OC1OC(COC2OC(CO)C(O)C(O)C2O)C(O)C(O)C1O)C1CCC2(C)C1C(O)CC1C3(C)CCC(OC4OC(CO)C(O)C(O)C4OC4OC(CO)C(O)C(O)C4O)C(C)(C)C3CCC12C (configuration not stated) |
| 11.3 | CC1(C)CCC2(C(=O)OC3OC(CO)C(O)C(O)C3O)CCC3(C)C(=CCC4C5(C)CCC(OC6OC(C(=O)O)C(O)C(O)C6OC6OC(CO)C(O)C(O)C6O)C(C)(C)C5CCC43C)C2C1 (configuration not stated) |
| 16.6 | CC(C)=CCCC(C)(O)C1CCC2(C)C1C(O)CC1C3(C)CCC(O)C(C)(C)C3C(O)CC12C (configuration not stated) |
| 6.67 | O=C(C=Cc1ccc(O)cc1)C1=C(O)C2=C(OC(C(O)C(O)C(O)CO)C2C2=C(O)C(=C(O)C=Cc3ccc(O)cc3)C(=O)C(O)(C3OC(CO)C(O)C(O)C3O)C2=O)C(O)(C2OC(CO)C(O)C(O)C2O)C1=O (configuration not stated) |
| 7.28 | CC(C)=CCCC(C)(OC1OC(CO)C(O)C(O)C1O)C1CCC2(C)C1C(O)CC1C3(C)CCC(O)C(C)(C)C3C(OC3OC(COC4OC(CO)C(O)C(O)C4O)C(O)C(O)C3O)CC12C (configuration not stated) |
| 5.97 | COc1cc(C=CC(=O)O)ccc1O |
| 7.09 | CC(C)=CCCC(C)(OC1OC(COC2OC(CO)C(O)C(O)C2O)C(O)C(O)C1O)C1CCC2(C)C1C(O)CC1C3(C)CCC(O)C(C)(C)C3C(OC3OC(CO)C(O)C(O)C3O)CC12C (configuration not stated) |
| 10.1 | CC(C)=CCCC(C)(O)C1CCC2(C)C1C(O)CC1C3(C)CCC(O)C(C)(C)C3C(OC3OC(CO)C(O)C(O)C3OC3OC(CO)C(O)C(O)C3O)CC12C (configuration not stated) |
| 3.9 | COc1cc(C=CCO)cc(OC)c1OC1OC(CO)C(O)C(O)C1O (configuration not stated) |
| 8.93 | O=c1c(O)c(-c2ccc(O)c(O)c2)oc2cc(O)cc(O)c12 |
| 10.5 | CC(C)=CCCC(C)(OC1OC(COC2OC(CO)C(O)C(OC3OCC(O)C(O)C3O)C2O)C(O)C(O)C1O)C1CCC2(C)C1C(O)CC1C3(C)CCC(OC4OC(CO)C(O)C(O)C4OC4OC(CO)C(O)C(O)C4O)C(C)(C)C3CCC12C (configuration not stated) |
| 12.7 | CC(C)=CCCC(C)(OC1OC(CO)C(O)C(O)C1O)C1CCC2(C)C1C(O)CC1C3(C)CCC(OC4OC(CO)C(O)C(O)C4OC4OC(COC(=O)CC(=O)O)C(O)C(O)C4O)C(C)(C)C3CCC12C (configuration not stated) |
| 7.95 | O=C(O)CC(C1=C(O)C(=C(O)C=Cc2ccc(O)cc2)C(=O)C(O)(C2OC(CO)C(O)C(O)C2O)C1=O)c1ccc(O)cc1 (configuration not stated) |
| 14.9 | C=C(CCC=C(C)C)C1CCC2(C)C1C(O)CC1C3(C)CCC(O)C(C)(C)C3C(OC3OC(CO)C(O)C(O)C3O)CC12C (configuration not stated) |
| 13.2 | CC(C)=CCCC(C)(OC1OC(CO)C(O)C(O)C1O)C1CCC2(C)C1C(O)CC1C3(C)CCC(OC4OC(COC5OC(CO)C(O)C(O)C5O)C(O)C(O)C4O)C(C)(C)C3CCC12C (configuration not stated) |

| LC retention time [min] | Compound |
| --- | --- |
| 8.91 | O=c1cc(-c2ccc(O)c(O)c2)oc2cc(O)cc(O)c12 |
| 11.2 | CC(C)=CCCC(C)(OC1OC(COC2OC(CO)C(O)C2O)C(O)C(O)C1O)C1CCC2(C)C1C(O)CC1C3(C)CCC(OC4OC(CO)C(O)C(O)C4OC4OC(CO)C(O)C(O)C4O)C(C)(C)C3CCC12C (configuration not stated) |
| 8.82 | CC(C)=CCCC(C)(OC1OC(CO)C(O)C(O)C1O)C1CCC2(C)C1C(O)CC1C3(C)CCC(OC4OC(CO)C(O)C(O)C4OC4OC(CO)C(O)C(O)C4O)C(C)(C)C3=CC(O)C12C (configuration not stated) |
| 5.99 | CC1OC(OCC2OC(Oc3c(-c4ccc(O)c(O)c4)oc4cc(O)cc(O)c4c3=O)C(O)C(O)C2O)C(O)C(O)C1O (configuration not stated) |
| 7.68 | CC(C)=CCCC(C)(OC1OC(CO)C(O)C(O)C1O)C1CCC2(C)C1C(O)CC1C3(C)CCC(O)C(C)(C)C3C(OC3OC(CO)C(O)C(O)C3OC3OCC(O)C(O)C3O)CC12C (configuration not stated) |
| 6.6 | CC1OC(OCC2OC(Oc3c(-c4ccc(O)cc4)oc4cc(O)cc(O)c4c3=O)C(O)C(O)C2O)C(O)C(O)C1O (configuration not stated) |
| 9.5 | CC(C)=CCCC(C)(OC1OC(CO)C(O)C(O)C1O)C1CCC2(C)C1C(O)CC1C3(C)CCC(OC4OC(CO)C(O)C(O)C4OC4OC(CO)C(O)C(O)C4O)C(C)(C)C3C(O)CC12C (configuration not stated) |
| 16.4 | CCCC=C1OC(=O)C2=C1CCC=C2 |
| 6.92 | O=C(C=Cc1ccc(O)c(O)c1)OC1CC(O)(C(=O)O)CC(OC(=O)C=Cc2ccc(O)c(O)c2)C1O (configuration not stated) |
| 7.5 | CC(C)=CCCC(C)(OC1OC(CO)C(O)C(O)C1O)C1CC(C)C2(C)C3CC(OC4OC(CO)C(O)C(O)C4OC4OC(CO)C(O)C(O)C4O)C4C(C)(C)C(O)CCC4(C)C3CC(O)C12 (configuration not stated) |
| 10.2 | CC(C)=CCCC(C)(OC1OC(COC2OC(COC3OCC(O)C(O)C3O)C(O)C(O)C2O)C(O)C(O)C1O)C1CCC2(C)C1C(O)CC1C3(C)CCC(OC4OC(CO)C(O)C(O)C4OC4OC(CO)C(O)C(O)C4O)C(C)(C)C3CCC12C (configuration not stated) |
| 14 | C=C(CCC=C(C)C)C1CCC2(C)C1C(O)CC1C3(C)CCC(O)C(C)(C)C3C(OC3OC(CO)C(O)C(O)C3OC3OCC(O)C(O)C3O)CC12C (configuration not stated) |
| 15.4 | CC(C)=CCCC(C)(OC1OC(CO)C(O)C(O)C1O)C1CCC2(C)C1C(O)CC1C3(C)CCC(OC4OC(CO)C(O)C(O)C4O)C(C)(C)C3CCC12C (configuration not stated) |
| 12.4 | CC(C)=CCCC(C)(OC1OC(CO)C(O)C(O)C1O)C1CCC2(C)C1C(O)CC1C3(C)CCC(OC4OC(CO)C(O)C(O)C4OC4OC(CO)C(O)C(O)C4O)C(C)(C)C3CCC12C (configuration not stated) |
| 17.3 | CC(C)=CCCC(C)(OC1OC(CO)C(O)C(O)C1O)C1CCC2(C)C1C(O)CC1C3(C)CCC(O)C(C)(C)C3CCC12C (configuration not stated) |
| 4.17 | O=C1C(=C(O)C=Cc2ccc(O)cc2)C(O)=C(C2OC(CO)C(O)C(O)C2O)C(=O)C1(O)C1OC(CO)C(O)C(O)C1O (configuration not stated) |
| 6.12 | O=c1c(O)c(-c2ccc(O)c(O)c2)oc2cc(OC3OC(CO)C(O)C(O)C3O)cc(O)c12 (configuration not stated) |
| 11.6 | CC(C)=CCCC(C)(OC1OC(COC2OCC(O)C(O)C2O)C(O)C(O)C1O)C1CCC2(C)C1C(O)CC1C3(C)CCC(OC4OC(CO)C(O)C(O)C4OC4OC(CO)C(O)C(O)C4O)C(C)(C)C3CCC12C (configuration not stated) |
| 10.3 | O=c1c(O)c(-c2ccc(O)cc2)oc2cc(O)cc(O)c12 |
| 6.76 | O=C(C=Cc1ccc(O)cc1)C1=C(O)C2=C(OC3(C2)OCC(O)C(O)C3O)C(O)(C2OC(CO)C(O)C(O)C2O)C1=O (configuration not stated) |
| 8.07 | CC(C)=CCCC(C)(OC1OC(CO)C(O)C(O)C1O)C1CCC2(C)C1C(O)CC1C3(C)CCC(O)C(C)(C)C3C(OC3OC(CO)C(O)C(O)C3O)CC12C (configuration not stated) |
